The record followed here is article PMC9884808, “Pharmacokinetics, tissue distribution, and antitumor activity of a novel compound, NY-2, in non-small cell lung cancer” (Frontiers in Pharmacology, 2023).

Data set [1] can be described thus: Stability of plasma samples (LC-MS/MS method validation). The conditions noted are these: room temperature 12 h, auto-sampler 4°C 3 days, -20°C 14 days, three freeze-thaw cycles. Format: in vitro ADME, rat. The source says:
We used the online ADME prediction tool Swiss AMDE (http://www.swissadme.ch/index.php) (SwissADME, 2017) to analyze the physicochemical descriptors and ADME parameters of NY-2 and ZLDI-8, to predict their pharmacokinetic properties, drug-like nature, and medicinal chemistry. […] Male Sprague-Dawley rats weighing 240 ± 20 g were purchased from Liaoning Changsheng Biotechnology Co., Ltd. (Liaoning, China, animal license #SCXK-2015-0001). Rats were used for the tissue distribution and pharmacokinetics experiments because of their larger body fluid volume. The rats were fasted for 12 h before the experiment but allowed to drink water freely. […] Plasma samples were subjected to a protein precipitation method for the quantitative analysis of ZLDI-8 and NY-2 by LC-MS/MS (API 3200MD, AB Sciex, United States). […] The linear equation and correlation coefficient (r) of the regression curve were calculated from these concentrations and the corresponding […] data. The specificity, lower limit of quantification (LLOQ), linear range, precision, accuracy, matrix effects, extraction recovery, stability of analytes during the whole process of storage, as well as treatment in a biological matrix and solution were determined to verify the reliability of the compound concentrations in vivo. […]

In the next data set the test system is T47D. The data set can be described thus: MTT cell viability assay. Format: cell-based, human. The conditions noted are these: Homo sapiens, T47D breast cancer cells. Here is the method: The human colorectal cancer cell lines, HCT116 and LoVo, the breast cancer cell line, T47D, the hepatocellular carcinoma cell line, HepG2, the normal human liver cell line, HL7702, human umbilical vein endothelial cells (HUVECs), and the non-small cell lung cancer cell lines, A549, H1993, HCC827, H460, were purchased from the American Type Culture Collection (Manassas, VA, United States). Cell lines were cultured in the recommended RPMI-1640 medium (AE24464298, Hyclone, United States) and DMEM medium (AE29422278, Hyclone, United States) supplemented with 10% fetal bovine serum (FBS; JC63470, FB15015, Clark, United States) with 1% penicillin-streptomycin. Cells were maintained in an incubator at 37°C with 5% CO2 (HF90,Sanyo, Japan) and passaged every 48–72 h, after detaching with 0.25% trypsin (Sigma, United States). The compounds ZLDI-8 and NY-1 to -15 were synthesized in the laboratory of Dr. Huaiwei Ding in Shenyang Pharmaceutical University, and verified by high-performance liquid chromatography (purity >95%) for use in experiments (Supplementary Figure S1). Paclitaxel was purchased from MedChemExpress (HY-B0015, 99.97% purity, United States).
Cell viability was measured by the MTT assay. HCT116, HL7702, A549, H1993, HCC827, and H460 cells were dispensed into 96-well plates at a density of 1 × 10^5 cells/mL. After 24–48 h incubation, cells were treated with the compounds at different concentrations for the indicated periods. An assay kit (WLA073, Wanlei Co., Liaoning, China), was used according to the manufacturer’s instructions to measure LDH activity, The absorbance at 450 nm was measured with a microplate reader (Elx-800, Bio-Rad, China).
The preliminary antitumor activity of the series of ZLDI-8 derivatives, NY-1 to -15 was screened by the MTT cell viability assay. […] The antitumor activity of NY-2 on HCT116 cells was concentration- and time-dependent, and slightly better than that of the original compound, ZLDI-8.
(Formazan colour is commonly taken as a measure of viable cells.)

The test system of a further data set is A549 cells. Nature of the data set: Transwell invasion assay. Format: cell-based, human. The conditions noted are these: 48 h. Here is the method: For the transwell invasion assay, Matrigel (50 mg/L) was diluted 1:8 with serum-free medium, and 60 μL of diluted Matrigel was pipetted into each transwell (Corning, NY, United States) and incubated overnight. The upper chamber was seeded with 1× 10^5 cells that had been starved for 24 h in 100 µL of serum-free medium, and 700 µL of medium with 10% FBS was added to the lower compartment. After cultivation for 48 h at 37°C, the cells in the upper chamber were removed with a cotton swab, and the cells on the lower surface of the filter were fixed with methanol for 20 min and stained with 0.1% crystal violet after drying. Excess stain was eluted with 33% acetic acid, and the absorbance was measured at 490 nm.

Molecules are shown by their SMILES.

As usually defined, the IC50 is the concentration needed to halve the response being measured. Take `Cc1c(C=C2C(=O)NC(=S)NC2=O)c2ccccc2n1CCOc1ccc(F)cc1` [NY-2]: the “stability of plasma samples” value in data set [1] is “stable under a variety of analytical conditions”. This compound also came in with an IC50 with T47D of 34.7 µM. Besides, in the data set on A549 cells, the “invasion of A549 cells” value was “inhibit the invasion and migration of A549 cells in a concentration-dependent manner”.
As for `Cc1ccc(OCCn2c(C)c(C=C3C(=O)NC(=S)NC3=O)c3ccccc32)c(C)c1` [ZLDI-8, reference compound], in data set [1], the “stability of plasma samples” value is “stable under a variety of analytical conditions”. Further, in the data set with T47D, the midpoint of inhibition, the IC50, lay at 29.1 µM.
